Reference: patent US10676518B1, “A4B2 nicotinic acetylcholine receptors with reduced or increased nicotine sensitivity and transgenic mouse model for the same” (University of Puerto Rico, priority 2015, dated 2020)
Marks after values point to notes of the source that are not given here.

Legend:
Type in all cases: cell-based, Rattus norvegicus
[1] = tested on: α4β2 nAChRs expressed in Xenopus laevis oocytes; test: Two-electrode voltage clamp, ACh-induced currents in oocytes; parameters: key to ACh EC50 (μM) / ACh Hill Coef. / ACh Peak Current (nA): (n/f) non-functional; (n/e) no-expression; settings: ACh as agonist; for ACh Peak Current (nA) / ACh EC50 (μM): mean ± SEM of 6-17 oocytes; for ACh-induced macroscopic peak current compared with WT / receptor function with ACh: in words; for ACh EC50 (μM): −70 mV
Description: (§1) Single point mutations were prepared using the Quickchange™ Site-Directed Mutagenesis Kit (Stratagene, La Jolla, Calif.). The template used for the PCR reaction was the pGEMHE vector with Rattus norvegicus cDNA coding for the α4 neuronal nAChR subunit. DNA was purified using a QIAprep spin miniprep kit (Quiagen, Germantown, Md.) and then sequenced to confirm the incorporation of each mutation. A total of 11 residues in the cytoplasmic loop of the α4 subunit were chosen to be mutated: S364, T417, S438, S469, S471, S490, S504, S516, T536, Y576, and S589. Each residue was mutated to alanine (A) and aspartic acid (D).
(§2) Each subunit encoding mRNA was synthesized in vitro from linearized pGEMHE plasmid templates of Rattus norvegicus cDNA coding for α4 and β2 nAChR subunits using the mMessage mMachine RNA transcription kit (Ambion, Austin, Tex.). mRNA mixtures of α4 and β2 subunits were prepared at 2 μg:3 μg ratio, and 32.2 nL of this mixture was microinjected into each oocyte. The mRNA mixture was microinjected, using a displacement injector (Drummond Instruments, Broomhall, Pa.), into stage V and VI oocytes that had been extracted, incubated in collagenase Type 1A (Sigma, St. Louis, Mo.), and defolliculated by manual dissection. The injected oocytes were incubated at 19° C. for 3-4 days in ND-96 medium supplemented with albumin, gentamicin, tetracycline, and theophyline. Electrophysiological experiments were performed after the third or fourth day of mRNA injection.
(§3) Oocytes injected with the mRNA transcripts of α4 and β2 subunits were characterized using a two-electrode voltage clamp. ACh- and nicotine-induced currents were recorded at 20° C., 3-4 days after mRNA injection, with a GeneClamp 500B Amplifier (Axon Instruments, Foster City, Calif.). […] All the reagents used were purchased from Sigma-Aldrich, Co. (St. Louis, Mo.). For dose-response curves, each oocyte was held at a membrane potential of −70 mV. Membrane currents were digitized using the DigiData 1322A interface (Axon Instruments, Foster City, Calif.), filtered at 2 kHz during recording. The Clampex 10.0 software running on a Pentium 4-based computer was used for data acquisition. Data analysis was via Prism 3.0 (Graphpad Software, San Diego, Calif.). Dose-response data for the α4β2 combination were collected using seven ACh doses (0.1, 1, 3, 10, 30, 100, and a seventh concentration ranging from 300 to 1000 μM depending on the mutant) and seven nicotine concentrations (0.1, 1, 3, 10, 30, 100, 300 μM). The data were fitted using a one-component sigmoidal dose-response equation, Y=I/ImaxBottom+(I/ImaxTop−I/ImaxBottom)/(1+10^((Log EC50−X)×HillSlope)) where X is the logarithm of concentration and Y is the response.
Target sequence in this assay (P09483 31-249 limits assumed): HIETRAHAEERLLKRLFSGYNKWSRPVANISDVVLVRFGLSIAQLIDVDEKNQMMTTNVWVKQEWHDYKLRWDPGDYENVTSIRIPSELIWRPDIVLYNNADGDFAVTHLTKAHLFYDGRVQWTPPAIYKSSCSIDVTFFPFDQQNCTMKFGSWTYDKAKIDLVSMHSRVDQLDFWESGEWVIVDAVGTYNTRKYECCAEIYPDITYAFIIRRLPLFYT
Target sequence in this assay (P12390 25-237 limits assumed, further chain): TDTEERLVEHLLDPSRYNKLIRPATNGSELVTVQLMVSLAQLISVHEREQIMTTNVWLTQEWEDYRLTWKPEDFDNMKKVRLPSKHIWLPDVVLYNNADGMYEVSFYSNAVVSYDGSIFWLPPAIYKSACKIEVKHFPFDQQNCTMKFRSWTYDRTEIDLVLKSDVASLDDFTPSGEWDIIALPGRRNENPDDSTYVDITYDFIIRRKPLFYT

[2] = tested on: α4β2 nAChRs expressed in Xenopus laevis oocytes; test: Two-electrode voltage clamp, nicotine-induced currents in oocytes; parameters: key to Nicotine EC50 (μM) / Nicotine Hill Coef. / Nicotine Peak Current (nA): (n/f) non-functional; (n/e) no-expression; key to Nicotine sensitivity mark of the mutation: Mutations highlighted in green (‡) exhibit hypersensitivity to nicotine; those in red (¶) exhibit agonist selectivity evidenced by their remarkable reductions in sensitivity to nicotine; settings: for Nicotine Hill Coef. / Nicotine Peak Current (nA) / receptor function with nicotine / Nicotine EC50 (μM) / nicotine-induced macroscopic peak current compared with WT: nicotine as agonist; for Nicotine Peak Current (nA) / Nicotine EC50 (μM): mean ± SEM of 6-17 oocytes; for receptor function with nicotine / nicotine-induced macroscopic peak current compared with WT: in words; for Nicotine EC50 (μM): −70 mV; for Nicotine sensitivity mark of the mutation: footnote mark beside the mutation
Description: as §1, §2, §3
Target sequence in this assay (P09483 31-333 limits assumed): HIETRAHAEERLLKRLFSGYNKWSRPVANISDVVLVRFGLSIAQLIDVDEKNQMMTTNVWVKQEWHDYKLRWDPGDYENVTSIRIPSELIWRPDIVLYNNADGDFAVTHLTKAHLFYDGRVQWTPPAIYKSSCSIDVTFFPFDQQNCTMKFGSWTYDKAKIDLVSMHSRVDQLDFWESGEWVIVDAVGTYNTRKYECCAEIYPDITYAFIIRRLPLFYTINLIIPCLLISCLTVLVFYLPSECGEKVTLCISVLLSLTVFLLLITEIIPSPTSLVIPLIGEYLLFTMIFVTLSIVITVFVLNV
Target sequence in this assay (P12390 25-500, further chain): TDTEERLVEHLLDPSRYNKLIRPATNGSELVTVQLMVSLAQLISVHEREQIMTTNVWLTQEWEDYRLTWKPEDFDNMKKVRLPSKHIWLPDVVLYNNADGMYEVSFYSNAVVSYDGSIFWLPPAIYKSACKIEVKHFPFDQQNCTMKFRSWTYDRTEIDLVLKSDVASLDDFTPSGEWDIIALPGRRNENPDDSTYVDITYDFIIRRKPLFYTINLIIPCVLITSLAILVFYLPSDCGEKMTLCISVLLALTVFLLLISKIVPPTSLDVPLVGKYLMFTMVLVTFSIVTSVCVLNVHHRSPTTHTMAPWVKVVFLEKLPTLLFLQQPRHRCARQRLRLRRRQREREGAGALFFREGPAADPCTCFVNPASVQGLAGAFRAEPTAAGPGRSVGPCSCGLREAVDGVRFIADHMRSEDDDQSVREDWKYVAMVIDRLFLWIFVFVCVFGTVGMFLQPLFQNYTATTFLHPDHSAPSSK

[3] = tested on: α4β2 nAChRs expressed in Xenopus laevis oocytes; test: Efficacy of agonist A-85380 versus ACh for subunit stoichiometry determination; settings: A-85380 100 nM vs ACh 300 μM; α4β2 mRNA 2:3 ratio
Description: To determine whether the α4β2 mutations α4S469Aβ2, α4S471Dβ2, α4T536Aβ2 and α4Y576Aβ2 expressed in Xenopus laevis oocytes assemble in the α4(2):β2(3) or the α4(3):β2(2) stoichiometry, we estimated the efficacy of agonist A-85380 when compared to ACh 300 μM. […] The efficacy of A-85380 in WTα4(2):β2(3) and […] was determined by comparing the macroscopic current elicited by A-85380 100 nM and ACh 300 μM in oocytes microinjected α4β2 mRNA in 1:10 and 10:1 ratios, respectively. The efficacy of A-85380 in α4S469Aβ2, α4S471Dβ2, α4T536Aβ2 and α4Y576Aβ2 was determined by comparing the macroscopic current elicited by A-85380 100 nM and ACh 300 μM in oocytes microinjected α4β2 mRNA in 2:3 ratio. The changes in stoichiometry in these four mutants were assessed by comparing the efficacy of A-85380 in each mutant compared to WTα4(2):β2(3) and WTα4(3):β2(2).

Substance	ACh Hill Coef. [1]	ACh Peak Current (nA) [1]	Nicotine Hill Coef. [2]	Nicotine Peak Current (nA) [2]	Nicotine Peak Current (nA) ([2]; listed as WT)	ACh-induced macroscopic peak current compared with WT [1]	receptor function with nicotine [2]	Nicotine EC50 (μM) [2]	Nicotine sensitivity mark of the mutation [2]	nicotine-induced macroscopic peak current compared with WT [2]	Nicotine Peak Current (nA) ([2]; listed as α4S438D)	Nicotine Peak Current (nA) ([2]; listed as α4S469A)	efficacy of A-85380 compared with WT injected 2:3 or 1:10 ratio [3]	receptor function with ACh [1]	ACh EC50 (μM) [1]
WT α4β2: wild-type rat α4β2 neuronal nicotinic acetylcholine receptor expressed in Xenopus laevis oocytes [reference compound]	1.00	2110 ± 243 nA	1.80	387 ± 66 nA	387±66										
α4S438Aβ2: rat α4β2 nAChR, α4 subunit point mutation S438A, CKII putative phosphorylation site	0.49	97 ± 29 nA	n/f	n/f		significant decreases in the macroscopic peak currents	non-functional	n/f							
α4S438Dβ2: rat α4β2 nAChR, α4 subunit point mutation S438D, CKII putative phosphorylation site	0.68	1938 ± 367 nA	1.29	2156 ± 475 nA		no change in the macroscopic peak current			α4S438Dβ2‡	significant increases in the macroscopic peak currents	2156±475				
α4S469Aβ2: rat α4β2 nAChR, α4 subunit point mutation S469A, CKII putative phosphorylation site	0.87	2222 ± 413 nA	1.84	1552 ± 313 nA		no change in the macroscopic peak current			α4S469Aβ2‡	significant increases in the macroscopic peak currents		1552±313	no significant difference		
α4S469Dβ2: rat α4β2 nAChR, α4 subunit point mutation S469D, CKII putative phosphorylation site	n/f	n/f	n/f	n/f			non-functional	n/f						non-functional	n/f
α4S471Aβ2: rat α4β2 nAChR, α4 subunit point mutation S471A, PKA putative phosphorylation site	n/f	n/f	n/f	n/f				n/f						non-functional	n/f
α4S471Dβ2: rat α4β2 nAChR, α4 subunit point mutation S471D, PKA putative phosphorylation site	1.01	1039 ± 139 nA	2.00	142 ± 313 nA		significant decrease in macroscopic peak current	functional activation by nicotine			significant decrease in the macroscopic peak current			no significant difference		
